Data as given in US12024521B2, “Isoquinoline derivatives, methods of synthesis and uses thereof” (priority 2020, dated 2024).

tested on: HIV-1 (NL4-3 RLuc reporter virus in MT-2 cells); assay: Inhibition of HIV-1 replication, MT-2 spreading infection assay; format: cell-based; conditions: Human immunodeficiency virus 1, NL43, MT2, 96 h, read-out: HIV activity (μM)
Protocol: Inhibition of HIV-1 viral replication was assayed in a spreading infection using MT-2 cells and NL4-3 RLuc reporter virus. For dose-response curves, compounds were initially diluted with DMSO to 100-fold the starting concentration in a 96-well plate and subjected to a series of 3-fold dilutions in DMSO for a total of eight or nine dilutions. If a single compound concentration was tested, the compound was diluted to 100-fold the desired concentration in DMSO. Compounds were then diluted 50-fold with infection media prepared by diluting NL4-3 RLuc virus stock to 400 IU/100 ul with complete RPMI. Then, 100 ul of 50-fold-diluted compound was transferred to 20,000 MT-2 cells that were preceded in 96-well plates in 100 ul of complete RPMI for a final volume of 200 ul, followed by incubation at 37° C. for 96 h. The final MOI in infected plates was 0.02, and the final DMSO concentration in all wells was 1%. All assays were run with three replicates. For each replicate, one well received DMSO only, and one well received medium only for normalization and background correction. […] Plates were read on a luminescence plate reader (Synergy H1; BioTek Instruments, Inc.).

SMILES | IC50 [µM]
COc1cc2c(cc1OCc1ccccc1)C(Cl)CNC2/C=C/c1cc2c(cc1C)OCO2 (stereo not drawn) [Compound 61] | 2.5
CCC1Cc2cc(OCc3ccccc3)c(OC)cc2C(/C=C/c2cc3c(cc2C)OCO3)N1 (stereo not drawn) [Compound 24, 6-Benzyloxy-7-methoxy-3-ethyl-1-[(E)-2-(6-methyl-1,3-benzodioxol-5-yl)vinyl]-1,2,3,4-tetrahydroisoquinoline] | 0.5
COc1cc2c(cc1OCc1ccccc1)CCN(O)C2/C=C/c1cc2c(cc1C)OCO2 (stereo not drawn) [Compound 36, 6-benzyloxy-2-hydroxy-7-methoxy-1-[(E)-2-(6-methyl-1,3-benzodioxol-5-yl)vinyl]-3,4-dihydro-1H-isoquinoline] | 0.053
COc1c(OCc2ccccc2)cc2c(c1OC)C(/C=C/c1cc3c(cc1C)OCO3)NCC2 (stereo not drawn) [Compound 10, 6-benzyloxy-7,8-dimethoxy-1-[(E)-2-(6-methyl-1,3-benzodioxol-5-yl)vinyl]-1,2,3,4-tetrahydroisoquinoline] | 2.5
COc1cc2c(cc1OCc1ccccc1)C(C)CNC2/C=C/c1cc2c(cc1C)OCO2 (stereo not drawn) [Compound 12, 6-Benzyloxy-7-methoxy-4-methyl-1-[(E)-2-(6-methyl-1,3-benzodioxol-5-yl)vinyl]-1,2,3,4-tetrahydroisoquinoline] | 1.4
COc1cc2c(c(OC)c1OCc1ccccc1)CCNC2/C=C/c1cc2c(cc1C)OCO2 (stereo not drawn) [Compound 6, 6-benzyloxy-5,7-dimethoxy-1-[(E)-2-(6-methyl-1,3-benzodioxol-5-yl)vinyl]-1,2,3,4-tetrahydroisoquinoline] | 0.37
